Measurements reported in article PMC9098912, “Molecular basis for inhibiting human glucose transporters by exofacial inhibitors” (Nature Communications, 2022).
“And” between values parts separate entries of the source, which are not always exact repeats. Identical values can stand only once. “Also recorded” adds a separate entry of the source.

What was measured:
[1] = biological target: T1, human glucose transporter GLUT1(N45T) (Homo sapiens, UniProt P11166, N45T); conditions: 50 mM maltose, cited from earlier work
T1 construct: made in house
T1 sequence (P11166 1-492 N45T): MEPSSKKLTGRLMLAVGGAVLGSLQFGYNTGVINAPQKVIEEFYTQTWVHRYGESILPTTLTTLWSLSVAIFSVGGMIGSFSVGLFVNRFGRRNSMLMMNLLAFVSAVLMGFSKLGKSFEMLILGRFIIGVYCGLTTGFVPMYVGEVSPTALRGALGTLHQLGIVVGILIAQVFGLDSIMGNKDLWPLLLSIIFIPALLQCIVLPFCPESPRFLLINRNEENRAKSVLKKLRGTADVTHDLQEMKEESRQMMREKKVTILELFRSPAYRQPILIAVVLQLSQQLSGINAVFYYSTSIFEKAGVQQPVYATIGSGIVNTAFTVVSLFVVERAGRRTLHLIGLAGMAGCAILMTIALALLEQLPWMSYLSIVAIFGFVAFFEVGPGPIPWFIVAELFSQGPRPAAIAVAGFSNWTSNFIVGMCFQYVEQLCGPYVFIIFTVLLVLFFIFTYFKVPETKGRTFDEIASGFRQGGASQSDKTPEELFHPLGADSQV

[2] = biological target: T2, human GLUT3(N43T) (Homo sapiens, UniProt P11169, N43T); conditions: 50 mM maltose, cited from earlier work
T2 construct: His10 (N); made in house; host or cells: Sf9 insect cells (baculovirus)
T2 sequence (P11169 1-496 N43T): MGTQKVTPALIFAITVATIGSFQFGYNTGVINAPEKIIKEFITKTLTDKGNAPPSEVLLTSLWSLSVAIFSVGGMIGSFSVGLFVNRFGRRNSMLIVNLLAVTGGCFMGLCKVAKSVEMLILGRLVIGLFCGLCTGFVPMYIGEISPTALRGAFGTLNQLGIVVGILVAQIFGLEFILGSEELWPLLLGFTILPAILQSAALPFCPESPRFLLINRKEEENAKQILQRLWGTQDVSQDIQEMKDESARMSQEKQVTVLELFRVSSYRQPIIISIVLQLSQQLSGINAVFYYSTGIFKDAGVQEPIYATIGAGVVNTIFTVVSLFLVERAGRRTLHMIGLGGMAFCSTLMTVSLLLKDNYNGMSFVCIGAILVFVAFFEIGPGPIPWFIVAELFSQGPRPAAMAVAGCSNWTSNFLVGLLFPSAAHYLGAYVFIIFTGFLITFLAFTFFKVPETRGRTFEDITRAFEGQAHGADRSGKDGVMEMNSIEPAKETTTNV

[3] = biological target: T1, human glucose transporter GLUT1(N45T); assay: Proteoliposome-based counterflow assay, inhibition of D-[2-3H]-glucose transport; assay type: biochemical; conditions: 100 μM inhibitor; for Figure S1c: transport activity in presence of inhibitor (value1-3) / Inhibition of glucose uptake: GLUT1; for Figure S1c: transport activity in presence of inhibitor (value1-3): 100 µM
Method: (§1) All mutants were generated by standard PCR-based strategy.
(§2) All counterflow assays were performed at 25 °C. […] Liposome without protein was used as negative control.
(§3) All experiments were repeated at least three times.

[4] = biological target: T3, WT GLUT3 (Homo sapiens, UniProt P11169, N43T); assay: Microscale thermophoresis (MST) binding assay; parameters: Figure 1e middle: MST binding curve, Mean / Figure 1e right: MST binding curve, Mean / Figure 2c: MST binding curve, Mean: unit not given here; conditions: GLUT3, log [CCB]
T3 construct: His10 (N); made in house; host or cells: Sf9 insect cells (baculovirus)
T3 sequence (P11169 1-496 N43T): T2 sequence (P11169 1-496 N43T)
Method: as §1
(§4) Inhibitors with serial dilutions were mixed with indicated protein. […] MST analyses were conducted on a Monolith NT. […] The MST data was analyzed by Monolith NT.115.

[5] = biological target: T4, GLUT3exo (GLUT3 S64W and I305W) (Homo sapiens, UniProt P11169, I305W/N43T/S64W); assay: biochemical; assay type: binding; conditions: GLUT3 dTrp mutant, log [CCB]
T4 construct: His10 (N); made in house; host or cells: Sf9 insect cells (baculovirus)
T4 sequence (P11169 whole entry N43T/S64W/I305W): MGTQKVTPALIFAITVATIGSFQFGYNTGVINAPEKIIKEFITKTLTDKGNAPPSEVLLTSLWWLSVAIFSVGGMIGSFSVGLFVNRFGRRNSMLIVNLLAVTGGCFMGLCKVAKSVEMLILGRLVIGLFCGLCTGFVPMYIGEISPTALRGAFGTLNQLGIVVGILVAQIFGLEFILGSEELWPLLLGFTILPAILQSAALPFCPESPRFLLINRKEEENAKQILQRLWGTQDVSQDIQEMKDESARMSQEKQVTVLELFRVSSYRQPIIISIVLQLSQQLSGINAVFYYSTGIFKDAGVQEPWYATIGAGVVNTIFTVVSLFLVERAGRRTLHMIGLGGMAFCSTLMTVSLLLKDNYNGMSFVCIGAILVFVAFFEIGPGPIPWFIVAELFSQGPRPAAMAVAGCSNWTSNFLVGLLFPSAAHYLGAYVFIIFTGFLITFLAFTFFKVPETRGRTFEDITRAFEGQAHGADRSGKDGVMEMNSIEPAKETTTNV
Method: Following the same principle for the engineering of XylE-WW, we introduced two Trp substitutions, S64W and I305W, on the extracellular segments of TM2 and TM8 of GLUT3, respectively. This variant will be referred to as GLUT3exo hereafter (Fig. 1a). The two bulky substituents were expected to trap GLUT3 in an outward-facing conformation.
as §1, §4

[6] = biological target: T2, human GLUT3(N43T); assay: Proteoliposome-based counterflow assay, inhibition of D-[2-3H]-glucose transport; assay type: biochemical; conditions: 100 μM inhibitor; for Figure S1d: transport activity in presence of inhibitor (value1-3): three independent experiments, 100 µM
Method: as §1, §2, §3

[7] = biological target: E. coli (strain O157:H7) D-xylose:proton symporter XylE (Escherichia coli O157:H7, UniProt P0AGF5); conditions: for Figure S1b: transport activity in presence of inhibitor (value1-3): 100 µM
Chain of E. coli (strain O157:H7) D-xylose:proton symporter XylE (P0AGF5 whole entry, the tested form may be a part): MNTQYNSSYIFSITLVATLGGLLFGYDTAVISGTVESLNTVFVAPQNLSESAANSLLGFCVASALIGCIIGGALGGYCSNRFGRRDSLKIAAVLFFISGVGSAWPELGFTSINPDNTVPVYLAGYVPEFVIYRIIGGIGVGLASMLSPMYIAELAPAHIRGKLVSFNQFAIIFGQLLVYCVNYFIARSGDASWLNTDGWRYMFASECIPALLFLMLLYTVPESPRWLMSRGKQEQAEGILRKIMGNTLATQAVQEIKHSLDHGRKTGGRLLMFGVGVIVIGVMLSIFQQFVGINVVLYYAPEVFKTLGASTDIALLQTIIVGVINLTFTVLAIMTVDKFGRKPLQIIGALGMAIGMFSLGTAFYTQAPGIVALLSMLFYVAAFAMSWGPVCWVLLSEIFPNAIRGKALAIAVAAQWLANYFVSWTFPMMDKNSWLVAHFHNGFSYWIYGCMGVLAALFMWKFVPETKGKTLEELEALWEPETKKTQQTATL
Method: The recombinant human glucose transporter GLUT1(N45T) and E. coli (strain O157:H7) D-xylose:proton symporter XylE were expressed and purified as described previously[17],[26]. […] In brief, the cDNA of human GLUT3 was cloned into a modified pFastBac vector (Invitrogen) fused with an N-terminal His10 tag. All mutants were generated by standard PCR-based strategy.
E. coli polar lipids (Avanti) were dissolved, dried, and resuspended to a final concentration of 20 mg/ml with the KPM 6.5 buffer (50 mM potassium phosphate, 2 mM MgSO4; pH 6.5) supplemented with 50 mM D-glucose or xylose (Sigma). After freeze-and-thaw with liquid nitrogen, the liposomes were extruded through 0.4 μm polycarbonate membranes (Millipore) and incubated with 1% n-octyl-β-d-glucoside (β-OG; Anatrace) at 4 °C for 30 min. Purified protein was incubated with liposomes at a ratio of ~1:100 (w/w) for 60 min. Then β-OG was removed by incubating with Bio-Beads SM2 (Bio-Rad) overnight. The proteoliposomes were subject to freeze-and-thaw again and extruded through 0.4 μm polycarbonate membranes. The homogenized proteoliposomes were ultracentrifuged at 100,000 g at 4 °C for 1 h and rinsed twice with the ice cold KPM 6.5 buffer. Finally, the proteoliposomes were resuspended in the KPM 6.5 buffer to a final concentration of 100 mg/ml (phospholipids).
All counterflow assays were performed at 25 °C. For each assay, an aliquot of 2 μl proteoliposomes was added into 98 μl KPM 6.5 buffer plus 1 μCi D-[2-^3H] glucose (specific radioactivity 23.4 Ci/mmol, PerkinElmer) or D-[^3H] xylose (20 Ci/mmol, American Radiolabeled Chemicals, Inc.). The final concentrations of the external D-[2-^3H] glucose and D-[^3H] xylose were 0.42 μM and 0.5 μM, respectively. Uptake of radio-labeled substrates was terminated at 30 s by rapidly filtering the solution through 0.22 μm GSTF filters (Millipore) and washed with 2.5 ml KPM 6.5 buffer. The filter was solubilized with 0.5 ml Optiphase HISAFE 3 (PerkinElmer) for 30 min for liquid scintillation counting with MicroBeta JET (PerkinElmer). Liposome without protein was used as negative control.
For inhibition assays, an aliquot of 2 μL proteoliposome pre-incubated with 100 μM indicated inhibitors for 0.5 h on ice was added to 98 μL KPM buffer containing 1 μCi D-[2-^3H]-glucose or D-[^3H] xylose with 100 μM inhibitors. To determine the IC50 of the inhibitor, a series of concentrations of the inhibitor was applied as indicated.
All experiments were repeated at least three times. Data for liposome-based counterflow assay were analyzed using GraphPad Prism 6.

Structure (SMILES): OC[C@H]1O[C@H](O[C@H]2[C@H](O)[C@@H](O)C(O)O[C@@H]2CO)[C@H](O)[C@@H](O)[C@@H]1O (mixture of isomers) [maltose]
- Inhibition of glucose transport ([1]; ref 18 (Deng et al., 2015)): could not be completely blocked; also recorded: cannot completely inhibit
- Preserved transport activity ([1]; ref Deng et al., 2015): one third
- Inhibition of glucose transport ([2]; ref 18 (Deng et al., 2015)): could not be completely blocked; also recorded: cannot completely inhibit
- Preserved transport activity ([2]; ref Deng et al., 2015): one quarter

Structure (SMILES): C=C1[C@@H](C)[C@H]2[C@H](Cc3ccccc3)NC(=O)[C@]23OC(=O)/C=C/[C@H](O)CCC[C@@H](C)C/C=C/[C@H]3[C@@H]1O [CCB, cytochalasin B]
- Figure S1c: transport activity in presence of inhibitor (value1-3) ([3]; three independent experiments): 7.4821 and 5.9756
- activity at 100 µM ([3]; read-out: Figure S1c: transport activity in presence of inhibitor (value1-3), GLUT1, three independent experiments): 5.88%
- Figure 1e middle: MST binding curve, Mean ([4]; M -5.20412): 94.2771
- Figure 1e middle: MST binding curve, Mean ([4]; M -5.50515): 91.6933
- Figure 1e middle: MST binding curve, Mean ([4]; M -5.80618): 73.4039
- Figure 1e middle: MST binding curve, Mean ([4]; M -6.10721): 45.8611
- Figure 1e middle: MST binding curve, Mean ([4]; M -6.40824): 32.1651
- Figure 1e middle: MST binding curve, Mean ([4]; M -7.0103): 19.0619
- Figure 1e middle: MST binding curve, Mean ([4]; M -7.31133): 12.7467
- Figure 1e middle: MST binding curve, Mean ([4]; M -7.61236): 11.0147
- Figure 1e middle: MST binding curve, Mean ([4]; M -7.91339): 6.7796
- Figure 1e middle: MST binding curve, Mean ([4]; M -8.51545): 9.6216
- Figure 1e middle: MST binding curve, Mean ([4]; M -8.81648): 7.333
- Figure 1e middle: MST binding curve, Mean ([4]; M -9.11751): 0.514
- Figure 1e middle: MST binding curve, Mean ([5]; M -3.69897): 12.3879
- Figure 1e middle: MST binding curve, Mean ([5]; M -4): 6.9876
- Figure 1e middle: MST binding curve, Mean ([5]; M -4.30103): 10.2535
- Figure 1e middle: MST binding curve, Mean ([5]; M -4.60206): 7.6812
- Figure 1e middle: MST binding curve, Mean ([5]; M -4.90309): 5.043
- Figure 1e middle: MST binding curve, Mean ([5]; M -5.20412): 1.714
- Figure 1e middle: MST binding curve, Mean ([5]; M -5.50515): 6.889
- Figure 1e middle: MST binding curve, Mean ([5]; M -5.80618): 3.628
- Figure 1e middle: MST binding curve, Mean ([5]; M -6.10721): 6.7864
- Figure 1e middle: MST binding curve, Mean ([5]; M -6.40824): 7.2964
- Figure 1e middle: MST binding curve, Mean ([5]; M -6.70927): 7.035
- Figure 1e middle: MST binding curve, Mean ([5]; M -7.0103): 6.292
- Figure 1e middle: MST binding curve, Mean ([5]; M -7.31133): 16.166
- Figure 1e middle: MST binding curve, Mean ([5]; M -7.61236): 24.9543
- Figure 1e middle: MST binding curve, Mean ([5]; M -7.91339): 19.4149
- Figure 1e middle: MST binding curve, Mean ([5]; M -8.21442): 19.7489

Structure (SMILES): COC1OC(CO)C(O)C(O)C1OC(=O)c1cc(Cl)c(OCc2nc3ccccc3n2C(C)C)c(Cl)c1 (stereo not shown) [SA2]
- Inhibition of glucose uptake [6]: almost completely abolished
- Figure S1d: transport activity in presence of inhibitor (value1-3) [6]: 15.2946 and 13.6199 and 13.8419
- Inhibition of glucose uptake [3]: almost completely abolished
- Figure S1c: transport activity in presence of inhibitor (value1-3) ([3]; three independent experiments): 23.4003 and 23.4095 and 22.1495
- Inhibition of xylose transport [7]: moderately inhibited
- Figure S1b: transport activity in presence of inhibitor (value1-3) [7]: 58.0461 and 66.7656 and 51.1774

Structure (SMILES): C#CCCC(=O)Nc1cccc(COc2c(Cl)cc(C(=O)OC3C(OC)OC(CO)C(O)C3O)cc2OC)c1 (stereo not shown) [SA3]
- Inhibition of glucose uptake [6]: mildly inhibited
- Figure S1d: transport activity in presence of inhibitor (value1-3) [6]: 34.7779 and 38.4924 and 41.7666
- Inhibition of glucose uptake [3]: mildly inhibited
- Figure S1c: transport activity in presence of inhibitor (value1-3) ([3]; three independent experiments): 52.3152 and 50.1788 and 49.4073
- Figure S1b: transport activity in presence of inhibitor (value1-3) [7]: 88.5699 and 92.3449 and 87.2521

Structure (SMILES): COc1c(Cl)c(OCc2ccccc2)c(Cl)c(C)c1C(=O)OC1C(OC)OC(CO)C(O)C1O (stereo not shown) [SA4]
- Inhibition of glucose uptake [6]: almost completely abolished
- Figure S1d: transport activity in presence of inhibitor (value1-3) [6]: 6.3677 and 8.1365 and 7.922
- Inhibition of glucose uptake [3]: almost completely abolished
- Figure S1c: transport activity in presence of inhibitor (value1-3) ([3]; three independent experiments): 12.2388 and 8.7146 and 10.3352
- Figure S1b: transport activity in presence of inhibitor (value1-3) [7]: 106.928 and 95.1823 and 98.9097

Structure (SMILES): CCOC(=O)c1c(C)c(Cl)c(OC(=O)c2c(C)c(Cl)c(O)c(Cl)c2OC)c(Cl)c1OC [SA5]
- Figure S1d: transport activity in presence of inhibitor (value1-3) [6]: 105.451 and 87.0011 and 100.662
- Figure S1c: transport activity in presence of inhibitor (value1-3) ([3]; three independent experiments): 101.106 and 93.647 and 95.1991
- Figure S1b: transport activity in presence of inhibitor (value1-3) [7]: 86.3087 and 90.0117 and 94.9979

Structure (SMILES): COc1ccccc1N1CCN(c2ncnc3c2cnn3-c2cccc(CN)c2)CC1 [SA6]
- Inhibition of glucose uptake [6]: almost completely abolished
- Figure S1d: transport activity in presence of inhibitor (value1-3) [6]: 8.1554 and 7.7188 and 4.7344
- Inhibition of glucose uptake [3]: almost completely abolished
- Figure S1c: transport activity in presence of inhibitor (value1-3) ([3]; three independent experiments): 5.6059 and 7.7469 and 6.8521
- Figure S1b: transport activity in presence of inhibitor (value1-3) [7]: 95.2845 and 101.756 and 111.538
